The text below walks through data of US20070054926A1 (priority 2003, published 2007).

Read-outs that look alike come from different tables or passages of the source.

For this test, the system named is Phytophthora infestans. It counts as in vivo. The note with it: individual active compound, protective, assessed 6 days after infection.

Consider `Fc1ccc([C@]2(Cn3cncn3)O[C@H]2c2ccccc2Cl)cc1` (racemic) [compound II, (2RS,3SR)-1-[3-(2-chlorophenyl)-2,3-epoxy-2-(4-fluorophenyl)-propyl]-1H-1,2,4-triazole], for which the “Efficacy in % of the untreated control” value (16 ppm in the spray liquor) came to 10%.
`CC1CCN(c2c(-c3c(F)cccc3Cl)c(Cl)nc3ncnn23)CC1` [A]: the “Efficacy in % of the untreated control” value (4 ppm in the spray liquor) is 0%, the “Efficacy in % of the untreated control” value (16 ppm in the spray liquor) was determined as 0% and the “Efficacy in % of the untreated control” value (63 ppm in the spray liquor) turned out to be 0%.
As to `C[C@H](Nc1c(-c2c(F)cc(F)cc2F)c(Cl)nc2ncnn12)C(F)(F)F` [B], the “Efficacy in % of the untreated control” value amounted to 0% (4 ppm in the spray liquor), 0% (16 ppm in the spray liquor) and 10% (63 ppm in the spray liquor).
As for `CC1CCN(c2c(-c3c(F)cc(F)cc3F)c(Cl)nc3ncnn23)CC1` [compound I, 5-chloro-7-(4-methylpiperidin-1-yl)-6-(2,4,6-trifluorophenyl)-[1,2,4]triazolo[1,5-a]pyrimidine], the “Efficacy in % of the untreated control” value came to 0% (4 ppm in the spray liquor), 10% (16 ppm in the spray liquor) and 10% (63 ppm in the spray liquor).
